Measured values from patent US7618641B2, “Functionally reconstituted viral membranes containing adjuvant” (priority 2003, dated 2009).

Test system: influenza proteins (A/Panama/2007/99)
Assay type: in vivo, Balb/C mice
Conditions: intranasal, day 0 and 14, 5 μg influenza proteins, lipopeptide in reconstituted membranes

Substance	enhancement of the immune response
N-palmitoyl-S-2,3(bispalmitoyloxy)-propyl-cysteinyl-seryl-(lysil)3-lysine [lysine derivative]	approximately equivalent enhancement of the immune response
N-palmitoyl-S-2,3(bispalmitoyloxy)-propyl-cysteinyl-seryl-(prolyl)3-proline [proline derivative]	approximately equivalent enhancement of the immune response
